In test [1] the target is T1, Serine/threonine-protein kinase 17A (Homo sapiens) (UniProt Q9UEE5).
T1 sequence (whole entry): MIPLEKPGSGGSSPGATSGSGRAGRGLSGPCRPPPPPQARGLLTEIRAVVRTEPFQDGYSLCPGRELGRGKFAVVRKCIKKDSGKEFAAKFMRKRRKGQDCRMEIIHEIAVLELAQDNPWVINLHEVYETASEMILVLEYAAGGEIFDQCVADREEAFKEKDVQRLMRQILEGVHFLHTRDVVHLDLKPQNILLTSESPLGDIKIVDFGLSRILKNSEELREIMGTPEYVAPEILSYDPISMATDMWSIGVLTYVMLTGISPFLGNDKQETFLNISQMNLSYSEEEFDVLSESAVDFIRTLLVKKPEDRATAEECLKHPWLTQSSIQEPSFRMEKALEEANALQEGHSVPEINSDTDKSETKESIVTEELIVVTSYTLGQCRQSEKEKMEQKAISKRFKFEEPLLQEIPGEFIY
Kind of test: Inhibition of human recombinant DRAK1 at 40 nM related to control ULK1.

The target in test [2] is T2, Serine/threonine-protein kinase TAO2 (Homo sapiens) (UniProt Q9UL54).
T2 sequence (whole entry): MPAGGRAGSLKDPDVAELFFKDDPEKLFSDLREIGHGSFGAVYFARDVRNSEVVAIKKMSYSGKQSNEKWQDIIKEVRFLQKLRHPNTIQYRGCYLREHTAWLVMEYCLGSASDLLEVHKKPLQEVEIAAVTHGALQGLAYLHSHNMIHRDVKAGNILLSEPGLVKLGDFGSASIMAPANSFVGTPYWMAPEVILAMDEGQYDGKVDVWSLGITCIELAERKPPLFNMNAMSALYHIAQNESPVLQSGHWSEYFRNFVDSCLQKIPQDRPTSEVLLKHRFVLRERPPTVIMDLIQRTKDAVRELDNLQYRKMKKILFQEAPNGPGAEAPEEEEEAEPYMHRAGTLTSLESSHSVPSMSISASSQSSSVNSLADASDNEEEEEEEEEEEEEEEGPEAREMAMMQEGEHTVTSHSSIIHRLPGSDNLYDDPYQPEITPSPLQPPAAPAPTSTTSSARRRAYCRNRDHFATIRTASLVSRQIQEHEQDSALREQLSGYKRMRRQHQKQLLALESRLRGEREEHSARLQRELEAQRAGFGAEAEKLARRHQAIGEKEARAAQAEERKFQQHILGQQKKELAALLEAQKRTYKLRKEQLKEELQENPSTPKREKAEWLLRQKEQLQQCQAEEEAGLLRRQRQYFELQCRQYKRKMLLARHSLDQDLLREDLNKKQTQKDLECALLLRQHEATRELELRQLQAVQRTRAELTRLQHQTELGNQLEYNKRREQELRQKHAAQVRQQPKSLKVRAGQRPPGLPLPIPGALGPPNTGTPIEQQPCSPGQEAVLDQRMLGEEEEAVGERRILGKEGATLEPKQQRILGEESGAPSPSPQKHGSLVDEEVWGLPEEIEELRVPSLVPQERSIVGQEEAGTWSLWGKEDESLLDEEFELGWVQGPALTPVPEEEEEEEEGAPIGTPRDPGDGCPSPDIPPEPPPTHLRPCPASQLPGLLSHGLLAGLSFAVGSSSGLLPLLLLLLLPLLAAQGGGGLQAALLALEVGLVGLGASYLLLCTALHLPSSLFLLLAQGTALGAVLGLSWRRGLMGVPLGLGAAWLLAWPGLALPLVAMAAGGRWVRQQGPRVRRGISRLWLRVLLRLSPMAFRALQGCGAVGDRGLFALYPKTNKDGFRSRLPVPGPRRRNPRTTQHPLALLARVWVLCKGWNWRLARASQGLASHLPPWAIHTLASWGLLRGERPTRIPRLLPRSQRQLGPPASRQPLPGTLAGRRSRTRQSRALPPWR
Kind of test: Inhibition of human recombinant TAO2 at 40 nM related to control ULK1.

For test [3], the target named is T3, Testis-specific serine/threonine-protein kinase 1 (Homo sapiens) (UniProt Q9BXA7).
T3 sequence (whole entry): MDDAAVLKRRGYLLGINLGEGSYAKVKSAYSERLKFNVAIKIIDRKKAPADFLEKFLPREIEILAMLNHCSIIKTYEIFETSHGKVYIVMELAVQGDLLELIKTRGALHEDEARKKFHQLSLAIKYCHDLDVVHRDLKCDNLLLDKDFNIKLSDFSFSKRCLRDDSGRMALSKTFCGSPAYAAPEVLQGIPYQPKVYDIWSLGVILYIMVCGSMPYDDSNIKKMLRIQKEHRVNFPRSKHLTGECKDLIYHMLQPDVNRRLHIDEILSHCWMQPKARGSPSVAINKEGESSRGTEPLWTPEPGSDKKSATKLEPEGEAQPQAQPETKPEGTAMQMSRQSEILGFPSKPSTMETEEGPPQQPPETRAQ
Kind of test: Inhibition of human recombinant TSSK1 at 40 nM related to control ULK1.

Test [4] has as its target T4, Testis-specific serine/threonine-protein kinase 3 (Homo sapiens) (UniProt Q96PN8).
T4 sequence (whole entry): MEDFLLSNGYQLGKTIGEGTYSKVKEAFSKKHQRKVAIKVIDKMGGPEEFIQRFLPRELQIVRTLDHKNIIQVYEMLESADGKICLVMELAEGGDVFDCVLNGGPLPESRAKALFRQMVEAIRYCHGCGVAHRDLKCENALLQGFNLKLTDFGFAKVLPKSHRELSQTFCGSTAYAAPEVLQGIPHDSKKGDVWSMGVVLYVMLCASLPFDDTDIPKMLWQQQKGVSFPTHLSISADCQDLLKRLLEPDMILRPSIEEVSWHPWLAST
Kind of test: Inhibition of human recombinant TSSK3 at 40 nM related to control ULK1.

Test [5] addresses Tyrosine-protein kinase CSK (Homo sapiens) (UniProt P41240). Kind of test: Inhibition of human recombinant CSK at 500 nM in presence of ATP by radiometric assay relative to control.
The target in test [6] is Protein kinase C alpha type (Homo sapiens) (UniProt P17252). Kind of test: Inhibition of human recombinant PKCa at 500 nM related to control ULK1.
For test [7], the target named is Mitogen-activated protein kinase 1 (Homo sapiens) (UniProt P28482). Kind of test: Inhibition of human recombinant Erk2 at 15 nM in presence of ATP by radiometric assay relative to control.
For test [8], the target named is Homeodomain-interacting protein kinase 3 (Homo sapiens) (UniProt Q9H422). Kind of test: Inhibition of human recombinant HIPK3 at 15 nM related to control ULK1.
Test [9] deals with Protein kinase C iota type (Homo sapiens) (UniProt P41743). Kind of test: Inhibition of human recombinant PKCi at 15 nM in presence of ATP by radiometric assay relative to control.
Chain of Protein kinase C iota type (Homo sapiens) (P41743 whole entry, looked up): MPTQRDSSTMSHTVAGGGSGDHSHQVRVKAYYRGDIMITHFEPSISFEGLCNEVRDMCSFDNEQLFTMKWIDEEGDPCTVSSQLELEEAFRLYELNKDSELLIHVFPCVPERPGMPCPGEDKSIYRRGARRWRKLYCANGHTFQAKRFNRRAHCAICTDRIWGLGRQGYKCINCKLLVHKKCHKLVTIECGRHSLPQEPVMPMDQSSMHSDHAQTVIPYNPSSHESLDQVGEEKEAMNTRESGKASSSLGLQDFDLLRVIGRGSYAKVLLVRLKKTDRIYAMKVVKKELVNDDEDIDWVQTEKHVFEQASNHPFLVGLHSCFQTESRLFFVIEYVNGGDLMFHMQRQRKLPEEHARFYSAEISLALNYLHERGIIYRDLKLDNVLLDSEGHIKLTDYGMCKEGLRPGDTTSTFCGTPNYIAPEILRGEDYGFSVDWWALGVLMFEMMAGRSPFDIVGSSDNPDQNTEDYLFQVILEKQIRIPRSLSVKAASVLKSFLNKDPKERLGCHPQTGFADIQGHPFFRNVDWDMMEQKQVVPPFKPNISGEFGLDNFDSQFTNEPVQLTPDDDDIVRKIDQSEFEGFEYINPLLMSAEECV

Chain of Homeodomain-interacting protein kinase 3 (Homo sapiens) (Q9H422 whole entry, looked up): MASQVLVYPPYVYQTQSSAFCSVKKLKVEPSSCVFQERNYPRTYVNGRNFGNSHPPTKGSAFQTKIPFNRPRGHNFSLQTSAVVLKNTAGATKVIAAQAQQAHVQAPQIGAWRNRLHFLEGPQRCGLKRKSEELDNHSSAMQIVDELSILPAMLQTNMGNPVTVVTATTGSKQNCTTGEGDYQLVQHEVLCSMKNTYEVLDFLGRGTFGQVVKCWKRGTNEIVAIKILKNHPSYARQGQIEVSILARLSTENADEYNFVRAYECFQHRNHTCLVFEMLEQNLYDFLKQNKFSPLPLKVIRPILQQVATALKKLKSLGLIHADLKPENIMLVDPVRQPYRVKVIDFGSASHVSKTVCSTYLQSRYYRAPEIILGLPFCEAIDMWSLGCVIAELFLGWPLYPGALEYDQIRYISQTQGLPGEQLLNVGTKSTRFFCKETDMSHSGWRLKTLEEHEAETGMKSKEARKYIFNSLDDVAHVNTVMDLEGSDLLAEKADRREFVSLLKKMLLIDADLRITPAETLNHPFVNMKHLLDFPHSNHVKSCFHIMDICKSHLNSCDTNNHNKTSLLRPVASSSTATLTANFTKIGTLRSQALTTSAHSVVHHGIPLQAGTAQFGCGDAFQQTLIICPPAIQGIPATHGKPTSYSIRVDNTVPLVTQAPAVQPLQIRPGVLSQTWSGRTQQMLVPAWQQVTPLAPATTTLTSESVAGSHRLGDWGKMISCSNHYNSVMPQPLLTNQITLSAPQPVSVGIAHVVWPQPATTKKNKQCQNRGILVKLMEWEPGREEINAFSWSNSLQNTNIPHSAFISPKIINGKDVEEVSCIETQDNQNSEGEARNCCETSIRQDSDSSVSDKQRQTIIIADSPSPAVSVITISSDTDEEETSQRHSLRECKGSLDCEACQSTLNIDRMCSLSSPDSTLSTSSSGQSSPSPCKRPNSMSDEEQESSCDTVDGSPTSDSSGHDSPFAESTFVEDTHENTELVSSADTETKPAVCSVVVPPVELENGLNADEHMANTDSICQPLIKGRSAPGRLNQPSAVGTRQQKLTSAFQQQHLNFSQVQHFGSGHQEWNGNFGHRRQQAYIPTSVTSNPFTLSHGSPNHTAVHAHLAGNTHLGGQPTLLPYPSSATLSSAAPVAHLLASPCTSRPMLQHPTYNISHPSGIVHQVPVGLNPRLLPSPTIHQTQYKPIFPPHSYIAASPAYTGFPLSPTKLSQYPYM
Chain of Tyrosine-protein kinase CSK (Homo sapiens) (P41240 2-450 limits assumed): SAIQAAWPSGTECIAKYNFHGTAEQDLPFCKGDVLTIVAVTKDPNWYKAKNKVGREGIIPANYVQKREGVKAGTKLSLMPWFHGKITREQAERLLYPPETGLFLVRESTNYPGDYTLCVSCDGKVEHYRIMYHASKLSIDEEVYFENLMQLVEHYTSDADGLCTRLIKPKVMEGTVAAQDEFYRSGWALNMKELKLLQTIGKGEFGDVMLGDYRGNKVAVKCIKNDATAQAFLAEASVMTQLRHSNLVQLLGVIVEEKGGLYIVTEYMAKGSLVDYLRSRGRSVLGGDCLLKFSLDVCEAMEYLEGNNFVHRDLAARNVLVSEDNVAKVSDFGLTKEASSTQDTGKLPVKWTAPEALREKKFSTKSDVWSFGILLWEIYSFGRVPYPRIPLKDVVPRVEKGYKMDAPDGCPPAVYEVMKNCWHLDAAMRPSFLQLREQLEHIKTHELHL
Chain of Mitogen-activated protein kinase 1 (Homo sapiens) (P28482 whole entry): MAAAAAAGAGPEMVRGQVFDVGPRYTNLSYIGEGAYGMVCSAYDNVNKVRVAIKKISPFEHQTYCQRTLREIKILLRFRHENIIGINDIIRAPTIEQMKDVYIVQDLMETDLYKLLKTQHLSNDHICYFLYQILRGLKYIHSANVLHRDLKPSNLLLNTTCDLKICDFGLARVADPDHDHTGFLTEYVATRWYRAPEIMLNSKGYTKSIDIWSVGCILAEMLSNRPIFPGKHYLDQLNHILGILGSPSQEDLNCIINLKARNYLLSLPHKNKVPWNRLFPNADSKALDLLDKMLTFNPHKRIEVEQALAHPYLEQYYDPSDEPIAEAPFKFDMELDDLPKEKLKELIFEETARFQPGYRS

As to `O=C(N[C@@H](C1CC1)C(F)(F)F)c1cc(-c2cnn3cc(-c4ccc(F)cc4)cnc23)cs1`, the fold change (FC) in test [1] stood at 1.07; in test [2], 0.04; in test [3], 0; in [4], 0.

`CNC(=O)c1ccccc1Oc1nc(Nc2cc(OC)c(OC)c(OC)c2)ncc1Br`: the inhibition (commonly the percentage by which the read-out fell short of the control) in test [5] came to 2%. In addition, the fold change (FC) in test [6] was determined as 0.

Turning to `CC(C)[C@H](NC(=O)c1cc(-c2cnn3cc(-c4ccc(OCCN5CCCCC5)cc4)cnc23)cs1)C(F)(F)F`, the inhibition was 0% in [7] and 4% in [9]. For the same compound, the fold change (FC) in test [8] is 0.

These data come from ChEMBL document CHEMBL5653631, “A Potent and Selective ULK1 Inhibitor Suppresses Autophagy and Sensitizes Cancer Cells to Nutrient Stress” (iScience, 2018).
